The assay addresses IKZF2 (Helios) (Homo sapiens (Human), UniProt Q96SW2+Q9UKS7). In words: Prolabel quantification of IKZF2 protein levels in 293GT cells.

pEC50: −log10 of the molar value. Structures can show the parent of a compound that is named as a salt.

From patent publication US11185537B2, “3-(5-amino-1-oxoisoindolin-2-yl)piperidine-2,6-dione derivatives and uses thereof” (Novartis AG, priority 2018, dated 2021) come the findings set out here.

Chain of IKZF2 (Helios) (Q9UKS7 whole entry): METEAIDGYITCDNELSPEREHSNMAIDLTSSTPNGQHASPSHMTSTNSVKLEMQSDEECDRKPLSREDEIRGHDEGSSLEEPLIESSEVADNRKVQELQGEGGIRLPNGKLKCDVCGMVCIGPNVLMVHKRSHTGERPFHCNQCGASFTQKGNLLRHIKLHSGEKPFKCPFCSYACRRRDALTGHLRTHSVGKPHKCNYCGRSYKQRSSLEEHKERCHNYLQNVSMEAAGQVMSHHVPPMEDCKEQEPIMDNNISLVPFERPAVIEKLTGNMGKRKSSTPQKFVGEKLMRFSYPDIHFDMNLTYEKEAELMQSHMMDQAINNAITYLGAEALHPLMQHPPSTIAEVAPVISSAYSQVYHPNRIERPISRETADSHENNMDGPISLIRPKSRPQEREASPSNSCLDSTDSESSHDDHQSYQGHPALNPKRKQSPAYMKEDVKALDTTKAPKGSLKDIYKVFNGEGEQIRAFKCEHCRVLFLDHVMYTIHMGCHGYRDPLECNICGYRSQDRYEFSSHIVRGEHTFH
Chain of IKZF2 (Helios) (Q96SW2 whole entry): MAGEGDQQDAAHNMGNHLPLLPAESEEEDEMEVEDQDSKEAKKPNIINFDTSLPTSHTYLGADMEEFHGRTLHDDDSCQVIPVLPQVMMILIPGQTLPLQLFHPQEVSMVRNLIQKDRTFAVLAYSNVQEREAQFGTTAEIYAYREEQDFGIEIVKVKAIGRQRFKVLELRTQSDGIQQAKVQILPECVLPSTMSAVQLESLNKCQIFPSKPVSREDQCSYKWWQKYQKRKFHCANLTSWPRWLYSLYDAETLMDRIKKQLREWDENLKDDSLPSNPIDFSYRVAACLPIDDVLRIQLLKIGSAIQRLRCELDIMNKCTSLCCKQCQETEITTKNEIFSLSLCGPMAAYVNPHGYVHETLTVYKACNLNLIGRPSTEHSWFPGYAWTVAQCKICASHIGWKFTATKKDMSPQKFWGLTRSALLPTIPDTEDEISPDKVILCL
Chain of IKZF2 (Helios) (Q16531 whole entry partner): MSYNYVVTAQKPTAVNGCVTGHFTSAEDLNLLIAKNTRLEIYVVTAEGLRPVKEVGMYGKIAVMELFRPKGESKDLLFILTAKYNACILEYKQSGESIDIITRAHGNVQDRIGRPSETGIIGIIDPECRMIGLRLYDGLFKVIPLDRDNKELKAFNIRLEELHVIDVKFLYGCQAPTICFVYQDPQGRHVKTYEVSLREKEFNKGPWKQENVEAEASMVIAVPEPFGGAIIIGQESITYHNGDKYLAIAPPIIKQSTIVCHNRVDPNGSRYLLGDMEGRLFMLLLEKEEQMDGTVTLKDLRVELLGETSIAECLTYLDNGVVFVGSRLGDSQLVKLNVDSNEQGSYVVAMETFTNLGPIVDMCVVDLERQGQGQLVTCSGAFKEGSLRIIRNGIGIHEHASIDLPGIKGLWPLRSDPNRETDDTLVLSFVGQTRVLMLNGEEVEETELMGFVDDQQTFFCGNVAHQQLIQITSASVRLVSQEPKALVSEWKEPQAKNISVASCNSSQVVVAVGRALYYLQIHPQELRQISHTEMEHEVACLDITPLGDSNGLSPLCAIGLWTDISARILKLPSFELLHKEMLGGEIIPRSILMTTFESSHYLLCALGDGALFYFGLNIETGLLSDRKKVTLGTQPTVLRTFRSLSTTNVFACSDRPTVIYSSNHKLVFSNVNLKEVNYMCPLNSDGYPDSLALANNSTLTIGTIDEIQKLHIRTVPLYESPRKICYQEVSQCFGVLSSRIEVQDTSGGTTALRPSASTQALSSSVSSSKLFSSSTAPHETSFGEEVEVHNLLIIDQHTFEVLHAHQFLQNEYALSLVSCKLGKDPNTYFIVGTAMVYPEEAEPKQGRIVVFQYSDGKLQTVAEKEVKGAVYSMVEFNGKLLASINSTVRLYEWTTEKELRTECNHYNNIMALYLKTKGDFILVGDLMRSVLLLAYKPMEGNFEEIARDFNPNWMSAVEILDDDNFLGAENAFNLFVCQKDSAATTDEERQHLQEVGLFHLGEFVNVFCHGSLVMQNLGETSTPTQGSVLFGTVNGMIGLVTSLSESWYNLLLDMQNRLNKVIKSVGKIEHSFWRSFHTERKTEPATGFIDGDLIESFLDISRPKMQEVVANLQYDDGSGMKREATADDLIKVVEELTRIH
Method: The Prolabel system from DiscoverX was used to develop high-throughput and quantitative assays to measure changes in IKZF1, IKZF2, and GSPT1 protein levels in response to compounds. […] The complementary fragment of beta-galactosidase (from DiscoverX), is added to the prolabel tag to form an active beta galactosidase enzyme whose activity can be precisely measured. In this way, the levels of a fusion protein with the prolabel tag can be quantified in cell lysates.
Lentiviral vectors, based on the Invitrogen pLenti6.2/V5 DEST backbone, were constructed that placed the prolabel tag upstream of IKZF1, IKZF2, or GSPT1 and expressed the fusion protein from a CMV promoter.
To ensure moderate and consistent expression of the prolabel fusion proteins across all cells in the population, stable cell lines were constructed from cells expressing a single copy of the construct. Lentivirus packaged with the constructs was made using the Virapower kit from Invitrogen.
The levels of prolabel tagged fusion proteins in compound treated cell lines were measured as follows: […]
Day 3, Plates were removed from the incubator and allowed to equilibrate at rt for 30 minutes. […] Plates were incubated at rt for three hours and luminescence was read using an Envision reader (Perkin Elmer) Data was analyzed and visualized using the Spotfire software package.

Regarding `CN[C@H]1CCCC[C@@H]1N(C)c1ccc2c(c1)CN(C1CCC(=O)NC1=O)C2=O` (mixture of isomers) [I-9, Racemic trans-3-(5-(methyl(-2-(methylamino)cyclohexyl)amino)-1-oxoisoindolin-2-yl)piperidine-2,6-dione HC(O)OH Salt], the Dmax at 10 µM (24 h, read-out: IKZF2 % protein reduction at 10 μM, 24 h) was 65%.

In the case of `CC(C)CN[C@H]1CCCC[C@@H]1Nc1ccc2c(c1)CN(C1CCC(=O)NC1=O)C2=O` (stereo partly drawn) [I-15, 3-(5-(((1S,2S)-2-(isobutylamino)cyclohexyl)amino)-1-oxoisoindolin-2-yl)piperidine-2,6-dione], the pEC50 (read-out: IKZF2 EC50, Pro-label assay, 293GT cells, degradation) was 6.03.
